The values below come from patent US20200008426A1, “ACTIVE COMPOUND COMBINATIONS” (BAYER AKTIENGESELLSCHAFT, priority 2017, published 2020).

“And” between values parts separate entries of the source, which are not always exact repeats. Identical values can stand only once. Like-named read-outs stand apart in the source and are kept apart here.

The subject of one data set is Rhizoctonia solani. Description: In vitro-Test with Rhizoctonia solani. The class given is cell-based.
A further data set relates to Sphaerotheca fuliginea. Description: In vivo preventive test on Sphaerotheca (cucumbers). As to conditions: Table D1, 7 days after inoculation.
A further data set concerns Fusarium culmorum. The data set can be described thus: In vitro-Test with Fusarium culmorum. The class given is cell-based.
For another data set, the system named is Puccinia triticina. The data set can be described thus: In vivo preventive Puccinia triticina test (wheat). The following applies: 8 days after inoculation; for pest or weed control at 20 ppm: 20 ppm a.i.; for pest or weed control at 40 ppm: 40 ppm a.i.; for pest or weed control at 80 ppm: 80 ppm a.i. The protocol:
After the spray coating has been dried, the plants are sprayed with a spore suspension of Puccinia triticina.
(§1) The test is evaluated 8 days after the inoculation.

Data set [1] relates to fish (Danio rerio) embryos. The data set can be described thus: In vivo ecotoxicity screening test on fish (Danio rerio). As to conditions: active compound alone; fish embryos, 96 h, 28.5° C. Here is the method:
(§2) with ECxi the Effect Concentration (EC) of each chemical i (in ppm) causing x % effect on the ecotoxicity test endpoint.
(§3) For each compound combination, the predicted ECx value is calculated. It is then compared to an experimentally measured value. The ratio of predicted versus measured effect for the combination (thereafter called the Model Deviation Ratio or MDR) is then calculated.
(§4) The environmental effect of the compound combinations was measured experimentally in laboratory ecotoxicity screening studies with fish (Danio rerio). […] Mortality was recorded after 96 h for each tested concentration and a reference control. […] Then, the MDR values were calculated.
(§5) • Solvent: 0.5% by weight dimethyl sulfoxide
(§6) This concentrate is then diluted with water to the desired a.i. concentration, leading to a maximal solvent concentration of 0.5% by weight. The compounds alone and the combinations were tested for five increasing concentrations between 0.01 and 1000 ppm a.i., (e.g. 0.1, 1.0, 10 and 100 ppm a.i). For the combinations, compounds A and B were mixed in a weight ratio of 5:1 to 1:5 and five increasing concentrations were tested for each ratio.

Data set [2] deals with Septoria tritici. Description: In vivo preventive Septoria tritici test (wheat). As to conditions: 21 days after inoculation; for pest or weed control at 40 ppm: 40 ppm a.i. Here is the method:
After the spray coating has been dried, the plants are sprayed with a spore suspension of Septoria tritici.
The test is evaluated 21 days after the inoculation.

The test system of another data set is Pyrenophora teres. The data set can be described thus: In vitro-Test with Pyrenophora teres. The class given is cell-based.
A further data set has as its system Ustilago avenae. The data set can be described thus: In vitro-Test with Ustilago avenae. The following applies: compound alone. The class given is cell-based.
The next data set relates to Venturia inaequalis. The data set can be described thus: In vivo preventive test on Venturia (apples). The following applies: 10 days after inoculation. Here is the method: The test is evaluated 10 days after the inoculation.
For the next data set, the system named is Alternaria alternata. The data set can be described thus: In vitro-Test with Alternaria alternata. The class given is cell-based.
In data set [3] the test system is Blumeria graminis f.sp. hordei. Description: In vivo preventive Blumeria test (barley). As to conditions: Table F2, 7 days after inoculation.
Another data set has as its system Botrytis cinerea. Description: In vitro-Test with Botrytis cinerea. The class given is cell-based.
In data set [4] the test system is Septoria tritici. Description: In vitro-Test with Septoria tritici. As to conditions: compound alone. The class given is cell-based.
Data set [5] is described as follows: In vivo ecotoxicity screening test on fish (Danio rerio). As to conditions: Danio rerio, in vivo, other: exposure of embryos to the aqueous preparation. The protocol: as §2, §3, §4, §5, §6
A further data set concerns Leptosphaeria nodorum. Description: In vivo preventive Leptosphaeria nodorum test (wheat). The following applies: Table G1, 8 days after inoculation. The protocol: After the spray coating has been dried, the plants are sprayed with a spore suspension of Leptosphaeria nodorum.
as §1

Another data set deals with Phakopsora pachyrhizi. The data set can be described thus: In vivo preventive test on Phakopsora (soybeans). As to conditions: Table C3, 7 days after inoculation.
Setting [6] is: Puccinia triticina, 192 h, read-out: Efficacy in % found.
[7] abbreviates: Puccinia triticina, 192 h, Table H1, read-out: Efficacy in % found.
The mark [8] stands for this setting: Zymoseptoria tritici, 504 h, read-out: Efficacy in % found.

Turning to `CC(C)C1CCC(Cc2ccc(Cl)cc2)C1(O)Cn1cncn1` (stereo not shown) [Example 1.012, ipconazole], the Efficacy % in the data set with Rhizoctonia solani (0.04 ppm) worked out at 35%; with Rhizoctonia solani (0.2 ppm) it was 96%; in the data set on Fusarium culmorum (0.04 ppm), 7%; in the data set on Fusarium culmorum (0.2 ppm), 13%; in the data set on Fusarium culmorum (1 ppm), 96%; with Fusarium culmorum (5 ppm), 99%. Also, the “Efficacy in % found” value in the data set with Sphaerotheca fuliginea (2.5 ppm a.i.) turned out to be 26%; in the data set on Sphaerotheca fuliginea (5 ppm a.i.) it was 87%; with Sphaerotheca fuliginea (10 ppm a.i.), 100%. The pest or weed control at 20 ppm with Puccinia triticina (setting [6]) came to 0%; in the data set with Puccinia triticina (setting [7]) it was 0%; with Septoria tritici [2] (Zymoseptoria tritici, 504 h, 20 ppm a.i., read-out: Efficacy in % found), 0%. Also, the pest or weed control at 40 ppm in the data set on Puccinia triticina (setting [6]) amounted to 44%; in the data set with Puccinia triticina (setting [7]) it was 67%; in the data set with Septoria tritici [2] (setting [8]), 0%. The pest or weed control at 80 ppm is 100% with Puccinia triticina (setting [6]); 89% in the data set with Puccinia triticina (setting [7]); 0% in the data set on Septoria tritici [2] (Zymoseptoria tritici, 504 h, 80 ppm a.i., read-out: Efficacy in % found). Further, the “Ecotoxicity LC50-96 h found” value in data set [1] is 6.57 ppm a.i.

For the compound `OC(Cc1ccccc1Cl)(Cn1nc[nH]c1=S)C1(Cl)CC1` (stereo not shown) [Example 1.018, prothioconazole], the Efficacy % in the data set on Pyrenophora teres (0.2 ppm) was 22%; with Fusarium culmorum (0.2 ppm), 99%; with Ustilago avenae (1 ppm) it was 85%; with Ustilago avenae (5 ppm), 100%; with Alternaria alternata (0.04 ppm), 0%; in the data set on Alternaria alternata (0.2 ppm) it was 91%. For the same compound, the “Efficacy in % found” value in the data set on Sphaerotheca fuliginea (2.5 ppm a.i.) was 71%; with Sphaerotheca fuliginea (5 ppm a.i.), 96%; in the data set on Sphaerotheca fuliginea (10 ppm a.i.), 100%; with Puccinia triticina (25 ppm a.i.), 0%; in the data set with Puccinia triticina (50 ppm a.i.) it was 0%; with Puccinia triticina (100 ppm a.i.), 0%. Moreover, the “Efficacy in % found” value in the data set with Puccinia triticina (Table H1, 25 ppm a.i.) was 0%; with Puccinia triticina (Table H1, 50 ppm a.i.), 0%; in the data set on Puccinia triticina (Table H1, 100 ppm a.i.), 0%; with Venturia inaequalis (Table E1, 2.5 ppm a.i.) it was 0%; in the data set with Venturia inaequalis (Table E1, 5 ppm a.i.), 30%; in the data set with Venturia inaequalis (Table E1, 10 ppm a.i.), 61%. Also, the entries for the “Efficacy in % found” value in the data set on Septoria tritici [2] (25 ppm a.i.), with Septoria tritici [2] (50 ppm a.i.) and in the data set with Septoria tritici [2] (100 ppm a.i.) were 0%, 14% and 43%, respectively. Further, in data set [1], the “Ecotoxicity LC50-96 h found” value was 3.16 ppm a.i.

Take `CCCN(CC)CC1COC2(CCC(C(C)(C)C)CC2)O1` (stereo not shown) [Example 1.020, spiroxamine]: the “Efficacy in % found” value is listed as 33% in data set [3] (62.5 ppm a.i.); 89% in [3] (125 ppm a.i.); 100% in [3] (250 ppm a.i.); 31% in the data set on Sphaerotheca fuliginea (25 ppm a.i.); 37% with Sphaerotheca fuliginea (50 ppm a.i.); 49% in the data set with Sphaerotheca fuliginea (100 ppm a.i.). The “Efficacy in % found” value is 0% with Venturia inaequalis (Table E1, 25 ppm a.i.); 0% in the data set with Venturia inaequalis (Table E1, 50 ppm a.i.); 14% in the data set with Venturia inaequalis (Table E1, 100 ppm a.i.). Further, the Efficacy % in the data set on Botrytis cinerea (4 ppm) amounted to 7%; in the data set on Botrytis cinerea (20 ppm), 9%; with Ustilago avenae (20 ppm) it was 12%; in the data set with Ustilago avenae (100 ppm), 100%; in the data set with Septoria tritici [4] (0.8 ppm), 25%; with Septoria tritici [4] (4 ppm) it was 34%. Besides, the pest or weed control at 62.5 ppm in the data set on Puccinia triticina (Puccinia triticina, 192 h, 62.5 ppm a.i., read-out: Efficacy in % found) was found to be 11%; in the data set with Septoria tritici [2] (Zymoseptoria tritici, 504 h, 62.5 ppm a.i., read-out: Efficacy in % found), 0%. For the same compound, the pest or weed control at 125 ppm turned out to be 33% with Puccinia triticina (Puccinia triticina, 192 h, 125 ppm a.i., read-out: Efficacy in % found) and 14% in the data set with Septoria tritici [2] (Zymoseptoria tritici, 504 h, 125 ppm a.i., read-out: Efficacy in % found). For the same compound, the pest or weed control at 250 ppm in the data set with Puccinia triticina (Puccinia triticina, 192 h, 250 ppm a.i., read-out: Efficacy in % found) worked out at 33%; in the data set on Septoria tritici [2] (Zymoseptoria tritici, 504 h, 250 ppm a.i., read-out: Efficacy in % found) it was 57%. The “Ecotoxicity LC50-96 h found” value in [1] was found to be 14.81 ppm a.i.

Take `Cn1cc(C(=O)Nc2ccc(F)cc2-c2ccc(Cl)c(Cl)c2)c(C(F)F)n1` [Example 2.002, bixafen]: the Efficacy % with Pyrenophora teres (0.2 ppm) turned out to be 46%; in the data set with Pyrenophora teres (1 ppm) it was 60%; in the data set with Pyrenophora teres (5 ppm), 72%; in the data set with Botrytis cinerea (1 ppm), 63%; in the data set with Botrytis cinerea (5 ppm) it was 91%; with Alternaria alternata (0.04 ppm), 55%. Besides, the Efficacy % was 84% and 57% in the data set on Alternaria alternata (0.2 ppm); 88% in the data set on Alternaria alternata (1 ppm). Besides, the “Efficacy in % found” value came out at 22% in the data set with Puccinia triticina (Table H1, 25 ppm a.i.); 33% with Puccinia triticina (Table H1, 50 ppm a.i.); 67% with Puccinia triticina (Table H1, 100 ppm a.i.). Besides, the “Ecotoxicity LC50-96 h found” value in [1] amounted to 0.154 ppm a.i.

As for `CC(O)(Cn1cncn1)c1ccc(Oc2ccc(Cl)cc2)nc1C(F)(F)F` (stereo not shown) [I.01, 2-[6-(4-chlorophenoxy)-2-(trifluoromethyl)pyridin-3-yl]-1-(1H-1,2,4-triazol-1-yl)propan-2-ol], in the data set on Puccinia triticina (setting [6]), the pest or weed control at 20 ppm was 30%, the pest or weed control at 40 ppm is 50% and the pest or weed control at 80 ppm stood at 60%. Also, the LC50 (usually the concentration lethal to half of the exposed cells or organisms) at 96 h in [5] came to 6.21 µg/mL. Further, the pest or weed control at 40 ppm with Septoria tritici [2] (setting [8]) is 63%.

Consider `CC(O)(Cn1cncn1)c1ccc(Oc2ccc(Br)cc2)nc1C(F)(F)F` (stereo not shown) [I.59, 2-[6-(4-bromophenoxy)-2-(trifluoromethyl)pyridin-3-yl]-1-(1H-1,2,4-triazol-1-yl)propan-2-ol], for which, in data set [5], the LC50 at 96 h came out at 6 µg/mL.

Regarding mancozeb [Example 5.013], the “Efficacy in % found” value with Leptosphaeria nodorum (250 ppm a.i.) came out at 14%; with Leptosphaeria nodorum (500 ppm a.i.), 14%; in the data set on Leptosphaeria nodorum (1000 ppm a.i.), 14%; in the data set on Phakopsora pachyrhizi (12.5 ppm a.i.), 23%; in the data set on Phakopsora pachyrhizi (25 ppm a.i.), 45%; in the data set with Phakopsora pachyrhizi (50 ppm a.i.), 90%. The “Efficacy in % found” value in the data set on Venturia inaequalis (Table E2, 12.5 ppm a.i.) is recorded as 0%; with Venturia inaequalis (Table E2, 25 ppm a.i.) it was 18%; in the data set on Venturia inaequalis (Table E2, 50 ppm a.i.), 95%; with Septoria tritici [2] (250 ppm a.i.), 29%; in the data set on Septoria tritici [2] (500 ppm a.i.) it was 29%; with Septoria tritici [2] (1000 ppm a.i.), 29%. Moreover, the Efficacy % in the data set on Pyrenophora teres (20 ppm) was 81%; with Pyrenophora teres (100 ppm), 83%; in the data set with Rhizoctonia solani (4 ppm, compound alone), 57%; with Rhizoctonia solani (20 ppm, compound alone), 99%.
